From US9700522B2, “Transdermal patch and method for delivery of vitamin B12” (Vita Sciences LLC, priority 2007, dated 2017)

Key:
[1] = early trial of patch with binary enhancer system: crystallization of enhancer in the patch on storage; format: physicochemical; details: binary enhancer system of methylnicotinate and propylene glycol in vitamin B12 patch
From the text: (§1) Permeation enhancers identified as useful for this product included nicotinates (methyl and benzyl), fatty acids (oleic acid, undecanioic acid, lauric acid), fatty alcohols (octanol and nonanol), terpenes (menthol, limonene, and menthone), and polyols (polyethylene glycol, propylene glycol, and glycerol). In an early trial, a binary enhancer system of methylnicotinate and propylene glycol was used but the inventor observed that the methylnicotinate crystallized after about 3-4 months in the patch.

skin [2] = assay: skin irritation on wear of patch with nicotinate enhancer; format: in vivo; details: benzylnicotinate substituted for methylnicotinate in the patch enhancer system
From the text: as §1

skin [3] = assay: permeation enhancement of vitamin B12 from the patch; details: in conjunction with propylene glycol
From the text: as §1

For `COC(=O)c1cccnc1` [methylnicotinate], the “time after which the enhancer crystallized in the patch” value [1] was 3-4 months.
For `O=C(OCc1ccccc1)c1cccnc1` [benzylnicotinate], the skin irritation (skin [2]) was “severe and unacceptable skin irritation”.
For `CC(C)[C@@H]1CC[C@@H](C)CC1=O` [menthone], the permeation enhancer performance (skin [3]) was “excellent permeation enhancer”.
